T1: mCRY2-PHR (Mus musculus, UniProt Q9R194)
T1 sequence (Q9R194 1-512): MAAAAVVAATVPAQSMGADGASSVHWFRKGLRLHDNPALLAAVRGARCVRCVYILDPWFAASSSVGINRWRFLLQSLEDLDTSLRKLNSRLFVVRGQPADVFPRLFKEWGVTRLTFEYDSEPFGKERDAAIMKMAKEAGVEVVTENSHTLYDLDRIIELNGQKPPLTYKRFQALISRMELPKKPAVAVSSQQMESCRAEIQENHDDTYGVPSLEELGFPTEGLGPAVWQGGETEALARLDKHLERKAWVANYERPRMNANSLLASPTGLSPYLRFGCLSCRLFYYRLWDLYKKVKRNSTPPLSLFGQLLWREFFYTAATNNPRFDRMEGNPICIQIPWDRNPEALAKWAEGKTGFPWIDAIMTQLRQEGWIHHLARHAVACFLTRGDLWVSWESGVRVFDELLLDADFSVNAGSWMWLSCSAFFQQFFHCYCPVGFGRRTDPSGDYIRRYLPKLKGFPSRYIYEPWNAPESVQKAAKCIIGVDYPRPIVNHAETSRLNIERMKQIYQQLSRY

T2: GST-tagged mCRY2 (1-544) (mouse, UniProt Q9R194 1-544)
T2 sequence: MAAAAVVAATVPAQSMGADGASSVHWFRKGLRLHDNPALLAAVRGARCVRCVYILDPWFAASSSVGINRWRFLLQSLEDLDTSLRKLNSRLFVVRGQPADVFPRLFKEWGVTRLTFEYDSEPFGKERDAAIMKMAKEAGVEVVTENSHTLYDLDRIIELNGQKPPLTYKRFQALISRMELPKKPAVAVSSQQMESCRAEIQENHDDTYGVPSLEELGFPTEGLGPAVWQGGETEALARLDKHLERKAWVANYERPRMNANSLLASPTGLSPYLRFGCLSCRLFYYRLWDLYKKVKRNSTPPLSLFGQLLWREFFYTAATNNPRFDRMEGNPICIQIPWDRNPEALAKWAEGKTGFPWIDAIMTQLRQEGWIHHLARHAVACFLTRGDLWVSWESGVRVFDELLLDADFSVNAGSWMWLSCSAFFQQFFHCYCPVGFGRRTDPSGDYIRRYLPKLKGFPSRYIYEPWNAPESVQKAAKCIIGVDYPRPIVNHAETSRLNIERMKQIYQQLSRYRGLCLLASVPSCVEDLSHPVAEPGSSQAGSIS

B1: Strep-tagged full-length Fbxl3 (natural protein)
chain: MKRGGRDSDRNSSEEGTAEKSKKLRTTNEHSQTCDWGNLLQDIILQVFKYLPLLDRAHASQVCRNWNQVFHMPDLWRCFEFELNQPATSYLKATHPELIKQIIKRHSNHLQYVSFKVDSSKESAEAACDILSQLVNCSLKTLGLISTARPSFMDLPKSHFISALTVVFVNSKSLSSLKIDDTPVDDPSLKVLVANNSDTLKLLKMSSCPHVSPAGILCVADQCHGLRELALNYHLLSDELLLALSSEKHVRLEHLRIDVVSENPGQTHFHTIQKSSWDAFIRHSPKVNLVMYFFLYEEEFDPFFRYEIPATHLYFGRSVSKDVLGRVGMTCPRLVELVVCANGLRPLDEELIRIAERCKNLSAIGLGECEVSCSAFVEFVKMCGGRLSQLSIMEEVLIPDQKYSLEQIHWEVSKHLGRVWFPDMMPTW

Key:
mCRY2-PHR = molecular target: T1, mCRY2-PHR; experiment: quenching of FAD fluorescence; format: binding
GST-tagged mCRY2 (1-544) = molecular target: T2, GST-tagged mCRY2 (1-544); experiment: pull-down

Molecule	Kd (mCRY2-PHR)	binding result (GST-tagged mCRY2 (1-544))
Cc1cc2nc3c(=O)[nH]c(=O)nc-3n(C[C@H](O)[C@H](O)[C@H](O)COP(=O)(O)OP(=O)(O)OC[C@H]3O[C@@H](n4cnc5c(N)ncnc54)[C@H](O)[C@@H]3O)c2cc1C [FAD]	~40 µM	
B1		binds

— paper PMC3618506 (Nature, 2013)
